ChEMBL document CHEMBL2440076, “New triarylpyrazoles as broad-spectrum anticancer agents: design, synthesis, and biological evaluation” (Eur J Med Chem, 2013)

Assays:
Assay type in all cases: functional
[1] = system: DU-145; experiment: Growth inhibition of human DU145 cells assessed as cell growth at 5X10'-6 M after 48 hrs by sulforhodamine B assay; settings: DU-145, 48 h, read-out: Activity
[2] = system: NCI-H460; experiment: Growth inhibition of human NCI-H460 cells assessed as cell growth at 5X10'-8 M after 48 hrs by sulforhodamine B assay; settings: NCI-H460, 48 h, read-out: Activity
[3] = system: OVCAR-5; experiment: Growth inhibition of human OVCAR5 cells assessed as cell growth at 3X10'-5 M after 48 hrs by sulforhodamine B assay; settings: OVCAR-5, 48 h, read-out: Activity
[4] = system: COLO 205; experiment: Growth inhibition of human COLO205 cells assessed as cell growth at 3X10'-5 M after 48 hrs by sulforhodamine B assay; settings: COLO 205, 48 h, read-out: Activity
[5] = system: BT-549; experiment: Growth inhibition of human BT549 cells assessed as cell growth at 3X10'-9 M after 48 hrs by sulforhodamine B assay; settings: BT-549, 48 h, read-out: Activity
[6] = system: SK-MEL-2; experiment: Growth inhibition of human SK-MEL-2 cells assessed as cell growth at 3X10'-6 M after 48 hrs by sulforhodamine B assay; settings: SK-MEL-2, 48 h, read-out: Activity
[7] = system: UACC-62; experiment: Growth inhibition of human UACC62 cells assessed as cell growth at 3X10'-8 M after 48 hrs by sulforhodamine B assay; settings: UACC-62, 48 h, read-out: Activity
[8] = system: TK-10; experiment: Growth inhibition of human TK10 cells assessed as cell growth at 3X10'-8 M after 48 hrs by sulforhodamine B assay; settings: TK-10, 48 h, read-out: Activity
[9] = system: HOP-92; experiment: Growth inhibition of human HOP92 cells assessed as cell growth at 3X10'-7 M after 48 hrs by sulforhodamine B assay; settings: HOP-92, 48 h, read-out: Activity
[10] = system: OVCAR-5; experiment: Growth inhibition of human OVCAR5 cells assessed as cell growth at 3X10'-6 M after 48 hrs by sulforhodamine B assay; settings: OVCAR-5, 48 h, read-out: Activity
[11] = system: OVCAR-8; experiment: Growth inhibition of human OVCAR8 cells assessed as cell growth at 3X10'-6 M after 48 hrs by sulforhodamine B assay; settings: OVCAR-8, 48 h, read-out: Activity
[12] = system: A549; experiment: Growth inhibition of human A549/ATCC cells assessed as cell growth at 3X10'-6 M after 48 hrs by sulforhodamine B assay; settings: A549, 48 h, read-out: Activity
[13] = Growth inhibition of human HCC2998 cells assessed as cell growth at 3X10'-6 M after 48 hrs by sulforhodamine B assay; settings: HCC 2998, 48 h, read-out: Activity
[14] = system: MDA-MB-231; experiment: Growth inhibition of human MDA-MB-231 cells assessed as cell growth at 3X10'-6 M after 48 hrs by sulforhodamine B assay; settings: MDA-MB-231, 48 h, read-out: Activity
[15] = system: NCI-H522; experiment: Growth inhibition of human NCI-H522 cells assessed as cell growth at 3X10'-5 M after 48 hrs by sulforhodamine B assay; settings: NCI-H522, 48 h, read-out: Activity
[16] = system: UACC-257; experiment: Growth inhibition of human UACC257 cells assessed as cell growth at 3X10'-5 M after 48 hrs by sulforhodamine B assay; settings: UACC-257, 48 h, read-out: Activity
[17] = system: SF-268; experiment: Growth inhibition of human SF268 cells assessed as cell growth at 3X10'-9 M after 48 hrs by sulforhodamine B assay; settings: SF-268, 48 h, read-out: Activity
[18] = system: M14; experiment: Growth inhibition of human M14 cells assessed as cell growth at 3X10'-8 M after 48 hrs by sulforhodamine B assay; settings: M14, 48 h, read-out: Activity
[19] = system: A549; experiment: Growth inhibition of human A549/ATCC cells assessed as cell growth at 3X10'-8 M after 48 hrs by sulforhodamine B assay; settings: A549, 48 h, read-out: Activity
[20] = system: IGROV-1; experiment: Growth inhibition of human IGROV1 cells assessed as cell growth at 3X10'-5 M after 48 hrs by sulforhodamine B assay; settings: IGROV-1, 48 h, read-out: Activity
[21] = system: KM12; experiment: Growth inhibition of human KM12 cells assessed as cell growth at 3X10'-8 M after 48 hrs by sulforhodamine B assay; settings: KM12, 48 h, read-out: Activity
[22] = system: MDA-MB-231; experiment: Growth inhibition of human MDA-MB-231 cells assessed as cell growth at 3X10'-7 M after 48 hrs by sulforhodamine B assay; settings: MDA-MB-231, 48 h, read-out: Activity
[23] = system: SR; experiment: Growth inhibition of human SR cells assessed as cell growth at 3X10'-7 M after 48 hrs by sulforhodamine B assay; settings: read-out: Activity
[24] = system: HT-29; experiment: Growth inhibition of human HT-29 cells assessed as cell growth at 3X10'-9 M after 48 hrs by sulforhodamine B assay; settings: HT-29, 48 h, read-out: Activity
[25] = Growth inhibition of human Hs 578T cells assessed as cell growth at 3X10'-6 M after 48 hrs by sulforhodamine B assay; settings: read-out: Activity
[26] = system: SNB-75; experiment: Growth inhibition of human SNB75 cells assessed as cell growth at 3X10'-8 M after 48 hrs by sulforhodamine B assay; settings: SNB-75, 48 h, read-out: Activity
[27] = system: Malme-3M; experiment: Growth inhibition of human MALME-3M cells assessed as cell growth at 3X10'-5 M after 48 hrs by sulforhodamine B assay; settings: read-out: Activity
[28] = system: SNB-75; experiment: Growth inhibition of human SNB75 cells assessed as cell growth at 3X10'-7 M after 48 hrs by sulforhodamine B assay; settings: SNB-75, 48 h, read-out: Activity
[29] = system: IGROV-1; experiment: Growth inhibition of human IGROV1 cells assessed as cell growth at 3X10'-6 M after 48 hrs by sulforhodamine B assay; settings: IGROV-1, 48 h, read-out: Activity
[30] = system: KM12; experiment: Growth inhibition of human KM12 cells assessed as cell growth at 3X10'-9 M after 48 hrs by sulforhodamine B assay; settings: KM12, 48 h, read-out: Activity
[31] = system: SK-MEL-2; experiment: Growth inhibition of human SK-MEL-2 cells assessed as cell growth at 3X10'-7 M after 48 hrs by sulforhodamine B assay; settings: SK-MEL-2, 48 h, read-out: Activity
[32] = system: 786-0; experiment: Growth inhibition of human 786-0 cells assessed as cell growth at 3X10'-5 M after 48 hrs by sulforhodamine B assay; settings: 786-0, 48 h, read-out: Activity
[33] = system: OVCAR-4; experiment: Growth inhibition of human OVCAR4 cells assessed as cell growth at 3X10'-5 M after 48 hrs by sulforhodamine B assay; settings: OVCAR-4, 48 h, read-out: Activity
[34] = system: Malme-3M; experiment: Growth inhibition of human MALME-3M cells assessed as cell growth at 3X10'-7 M after 48 hrs by sulforhodamine B assay; settings: read-out: Activity
[35] = system: NCI-H226; experiment: Growth inhibition of human NCI-H226 cells assessed as cell growth at 3X10'-8 M after 48 hrs by sulforhodamine B assay; settings: NCI-H226, 48 h, read-out: Activity
[36] = system: 786-0; experiment: Growth inhibition of human 786-0 cells assessed as cell growth at 3X10'-9 M after 48 hrs by sulforhodamine B assay; settings: 786-0, 48 h, read-out: Activity

Q: Which growth at 5 µM [1] does the source give for `O=C(Nc1cccc(-n2cc(-c3ccncc3)c(-c3ccc(Cl)c(O)c3)n2)c1)Nc1cc(C(F)(F)F)cc(C(F)(F)F)c1` here?
A: Its growth at 5 µM is 5%.

Q: And the growth at 0.05 µM [2]?
A: The growth at 0.05 µM was 101%.

Q: For `COc1cc(-c2nn(-c3cccc(NC(=O)Nc4ccc(Cl)c(Cl)c4)c3)cc2-c2ccncc2)ccc1Cl`, which growth at 5 µM [1] is on record?
A: Its growth at 5 µM is 7%.

Q: What about the growth at 0.05 µM [2] of the same molecule?
A: Its growth at 0.05 µM is 102%.

Q: Which growth at 0.05 µM [2] does the source give for `COc1cc(-c2nn(-c3cccc(NC(=O)Nc4cc(C(F)(F)F)cc(C(F)(F)F)c4)c3)cc2-c2ccncc2)ccc1Cl` here?
A: Its growth at 0.05 µM is 100%.

Q: Which results are given for `COc1cc(-c2nn(-c3cccc(NC(=O)c4ccc(Cl)c(C(F)(F)F)c4)c3)cc2-c2ccncc2)ccc1Cl`?
A: growth at 30 µM [3]: 68%; growth at 30 µM [4]: -13%; growth at 0.003 µM [5]: 96%; growth at 3 µM [6]: 36%; growth at 0.03 µM [7]: 99%; growth at 0.03 µM [8]: 93%; growth at 0.3 µM [9]: 73%; growth at 3 µM [10]: 88%; growth at 3 µM [11]: 50%; growth at 3 µM [12]: 44%; growth at 3 µM [13]: 63%; growth at 3 µM [14]: 27%; growth at 30 µM [15]: -7%; growth at 30 µM [16]: 32%; growth at 0.003 µM [17]: 94%; growth at 0.03 µM [18]: 96%; growth at 0.03 µM [19]: 98%; growth at 30 µM [20]: 8%; growth at 0.03 µM [21]: 96%; growth at 0.3 µM [22]: 81%; growth at 0.3 µM [23]: 82%; growth at 0.003 µM [24]: 90%; growth at 3 µM [25]: 43%; growth at 0.03 µM [26]: 89%; growth at 30 µM [27]: -6%; growth at 0.3 µM [28]: 77%; growth at 3 µM [29]: 40%; growth at 0.003 µM [30]: 98%; growth at 0.3 µM [31]: 96%; growth at 30 µM [32]: 32%; growth at 30 µM [33]: 32%; growth at 0.3 µM [34]: 88%; growth at 0.03 µM [35]: 92%; growth at 0.003 µM [36]: 94%

Q: Which results are given for `O=C(Nc1cccc(-n2cc(-c3ccncc3)c(-c3ccc(Cl)c(O)c3)n2)c1)Nc1ccc(Cl)c(C(F)(F)F)c1`?
A: growth at 30 µM [3]: -14%; growth at 30 µM [4]: -90%; growth at 0.003 µM [5]: 102%; growth at 3 µM [6]: -41%; growth at 0.03 µM [7]: 95%; growth at 0.03 µM [8]: 103%; growth at 0.3 µM [9]: 55%; growth at 3 µM [10]: 33%; growth at 3 µM [11]: -16%; growth at 3 µM [12]: 7%; growth at 3 µM [13]: 7%; growth at 3 µM [14]: -38%; growth at 30 µM [15]: -55%; growth at 30 µM [16]: -90%; growth at 0.003 µM [17]: 101%; growth at 0.03 µM [18]: 101%; growth at 0.03 µM [19]: 94%; growth at 30 µM [20]: -47%; growth at 0.03 µM [21]: 103%; growth at 0.3 µM [22]: 69%; growth at 0.3 µM [23]: 81%; growth at 0.003 µM [24]: 97%; growth at 3 µM [25]: 9%; growth at 0.03 µM [26]: 92%; growth at 30 µM [27]: -70%; growth at 0.3 µM [28]: 74%; growth at 3 µM [29]: -17%; growth at 0.003 µM [30]: 101%; growth at 0.3 µM [31]: 108%; growth at 30 µM [32]: 1%; growth at 30 µM [33]: 9%; growth at 0.3 µM [34]: 77%; growth at 0.03 µM [35]: 86%; growth at 0.003 µM [36]: 98%
